According to patent US20240173255A1, “Polymeric Micelle Coated with Chain-Like Poorly Soluble Drug, Preparation Method and Application” (Hangzhou Hanjing Biotechnology Co., Ltd, priority 2021, published 2024):
Values after ≈ are worked out from the molar mass of the structure shown.

Assays:
[1] = Solubility of series A to E drugs in water and 10% Soluplus solution; format: physicochemical; details: for Solubility in 10% Soluplus: 10% Soluplus solution
Text: The solubilities of the poorly soluble chain-like drugs of the series A to E according to the present disclosure in water and a 10% Soluplus solution are shown in Table 2.

[2] = Water solubility stated in background; details: background statement
[3] = Hydrophobic constant; format: physicochemical
Text: (§1) The hydrophobic constants and solubilities of the selenium-containing glutaminase inhibitors from series A to E prepared according to Examples 1 to 5 of the present disclosure as well as the commercially available ethaselen in water, dimethylsulfoxide (DMSO), and Soluplus solutions are shown in Table 4.

[4] = Solubilities of ethaselen and compounds of Examples 1 to 5 in water, DMSO and Soluplus solutions; format: physicochemical
Text: as §1

[5] = Solubility of compound CPD4 in different solvents or carriers (HPLC of supernatant); format: physicochemical
Procedure: Taking the symmetric diselenoline molecule CPD4 from series A prepared according to Example 1 as an example, solubilities in different solvents and carriers were measured separately. A test method was conducted as follows: 1 mg of the compound was added into 1 mL of different solvents or carriers separately, ultrasonicated in a water bath for 10 min to fully dissolve the compound to obtain a mixture, and the mixture was stirred at ambient temperature for 12 h, and centrifuged, and a compound concentration in a resulting supernatant was determined by HPLC.

[6] = Sodium acetate buffer (pH = 4.5)

COc1ccc2[se]n(CCCCCCn3[se]c4ccc(OCCCN(C)C)cc4c3=O)c(=O)c2c1 [CPD24]
Solubility in 10% Soluplus [1]: >1000 µg/mL | Solubility in water [1]: <10 µg/mL

COc1ccc2[se]n(CCCCCCn3[se]c4ccc(O)cc4c3=O)c(=O)c2c1
water solubility [2]: 3.3 µg/mL (≈ 6.29 µM)

COc1ccc2[se]n(CCCCCCn3[se]c4ccc(OCCCN=[N+]=[N-])cc4c3=O)c(=O)c2c1 [CPD19]
Solubility in 10% Soluplus [1]: >1000 µg/mL | Solubility in water [1]: <10 µg/mL

O=C(CCCCCn1[se]c2ccccc2c1=O)Oc1ccccc1 [CPD36]
Solubility in 10% Soluplus [1]: >1000 µg/mL | Solubility in water [1]: <10 µg/mL

COc1ccc2[se]n(CCCCCn3[se]c4ccc(OCCCn5nnnc5C)cc4c3=O)c(=O)c2c1 [CPD28]
Solubility in 10% Soluplus [1]: >1000 µg/mL | Solubility in water [1]: <10 µg/mL

COc1ccc2[se]n(CCCCCn3[se]c4ccc(OCCCN(C)C)cc4c3=O)c(=O)c2c1 [CPD23]
Solubility in 10% Soluplus [1]: >1000 µg/mL | Solubility in water [1]: <10 µg/mL

COc1ccc2[se]n(CCCCCCn3[se]c4ccc(OCCCn5nnnc5C)cc4c3=O)c(=O)c2c1 [CPD29]
Solubility in 10% Soluplus [1]: >1000 µg/mL | Solubility in water [1]: <10 µg/mL

COc1ccc2[se]n(CCCCCn3[se]c4ccc(O)cc4c3=O)c(=O)c2c1 [CPD13]
Solubility in 10% Soluplus [1]: >1000 µg/mL | Solubility in water [1]: 10 µg/mL (≈ 19.6 µM)

COc1ccc2[se]n(CCCCCCCn3[se]c4ccc(OCCCN=[N+]=[N-])cc4c3=O)c(=O)c2c1 [CPD20]
Solubility in 10% Soluplus [1]: >1000 µg/mL | Solubility in water [1]: <10 µg/mL

COc1ccc2[se]n(CCCCCCCn3[se]c4ccc(O)cc4c3=O)c(=O)c2c1 [CPD15]
Solubility in 10% Soluplus [1]: >1000 µg/mL | Solubility in water [1]: 10 µg/mL (≈ 18.6 µM)

COc1ccc2[se]n(Cc3cccc(Cn4[se]c5ccc(OCCCn6nnnc6C)cc5c4=O)c3)c(=O)c2c1 [CPD34]
Solubility in 10% Soluplus [1]: >1000 µg/mL | Solubility in water [1]: <10 µg/mL

O=c1c2ccccc2[se]n1CCCCn1[se]c2ccccc2c1=O [CPD2]
Solubility in 10% Soluplus [1]: 200 µg/mL (≈ 444 µM) | Solubility in water [1]: 1 µg/mL (≈ 2.22 µM)

COc1ccc2[se]n(Cc3cccc(Cn4[se]c5ccc(O)cc5c4=O)c3)c(=O)c2c1 [CPD31]
Solubility in 10% Soluplus [1]: >1000 µg/mL | Solubility in water [1]: <10 µg/mL

O=c1c2cccc(F)c2[se]n1CCCCCn1[se]c2c(F)cccc2c1=O [CPD8]
Solubility in 10% Soluplus [1]: 300 µg/mL (≈ 600 µM) | Solubility in water [1]: 1 µg/mL (≈ 2 µM)

O=c1c2ccccc2[se]n1CCCCCn1[se]c2ccccc2c1=O [CPD3]
Solubility in 10% Soluplus [1]: 300 µg/mL (≈ 646 µM) | Solubility in water [1]: 1 µg/mL (≈ 2.15 µM)

COc1ccc2[se]n(Cc3cccc(Cn4[se]c5ccc(OCCCN(C)C)cc5c4=O)c3)c(=O)c2c1 [CPD33]
Solubility in 10% Soluplus [1]: >1000 µg/mL | Solubility in water [1]: <10 µg/mL

O=C(NCCCCCn1[se]c2ccccc2c1=O)c1ccccc1 [CPD38]
Solubility in 10% Soluplus [1]: >1000 µg/mL | Solubility in water [1]: <10 µg/mL

O=C(CCCCCn1[se]c2ccccc2c1=O)Nc1ccccc1 [CPD37]
Solubility in 10% Soluplus [1]: >1000 µg/mL | Solubility in water [1]: <10 µg/mL

O=c1c2cccc(F)c2[se]n1CCCCCCCn1[se]c2c(F)cccc2c1=O [CPD10]
Solubility in 10% Soluplus [1]: 600 µg/mL (≈ 1140 µM) | Solubility in water [1]: 1 µg/mL (≈ 1.89 µM)

COc1ccc2[se]n(CCCCn3[se]c4ccc(OCCCN(C)C)cc4c3=O)c(=O)c2c1 [CPD22]
Solubility in 10% Soluplus [1]: >1000 µg/mL | Solubility in water [1]: <10 µg/mL

COc1ccc2[se]n(CCCCCn3[se]c4ccc(OCCCN=[N+]=[N-])cc4c3=O)c(=O)c2c1 [CPD18]
Solubility in 10% Soluplus [1]: >1000 µg/mL | Solubility in water [1]: <10 µg/mL

COc1ccc2[se]n(Cc3cccc(Cn4[se]c5ccc(OCCCN=[N+]=[N-])cc5c4=O)c3)c(=O)c2c1 [CPD32]
Solubility in 10% Soluplus [1]: >1000 µg/mL | Solubility in water [1]: <10 µg/mL

COc1ccc2[se]n(CCCCn3[se]c4ccc(OCCCn5nnnc5C)cc4c3=O)c(=O)c2c1 [CPD27]
Solubility in 10% Soluplus [1]: >1000 µg/mL | Solubility in water [1]: <10 µg/mL

COc1ccc2[se]n(CCCCn3[se]c4ccc(OCCCN=[N+]=[N-])cc4c3=O)c(=O)c2c1 [CPD17]
Solubility in 10% Soluplus [1]: >1000 µg/mL | Solubility in water [1]: <10 µg/mL

COc1ccc2[se]n(CCCn3[se]c4ccc(O)cc4c3=O)c(=O)c2c1 [CPD11]
Solubility in 10% Soluplus [1]: >1000 µg/mL | Solubility in water [1]: 15 µg/mL (≈ 31.1 µM)

O=c1c2ccccc2[se]n1CCn1[se]c2ccccc2c1=O [Ethaselen, ethaselen]
Hydrophobic constant [3]: 1.87 | Solubility ([4]; DMSO, organic solvent or mixture, read-out: Solubility in DMSO): 22000 µg/mL (≈ 52100 µM) | Solubility ([4]; water, read-out: Solubility in Water): 2 to 3 µg/mL (≈ 4.74 to 7.11 µM)

COc1ccc2[se]n(CCCn3[se]c4ccc(OCCCn5nnnc5C)cc4c3=O)c(=O)c2c1 [CPD26]
Solubility in 10% Soluplus [1]: >1000 µg/mL | Solubility in water [1]: <10 µg/mL

COc1ccc2[se]n(CCCn3[se]c4ccc(OCCCN(C)C)cc4c3=O)c(=O)c2c1 [CPD21]
Solubility in 10% Soluplus [1]: >1000 µg/mL | Solubility in water [1]: <10 µg/mL

O=c1c2ccccc2[se]n1CCCCCCn1[se]c2ccccc2c1=O [CPD4]
Solubility in 10% Soluplus [1]: 500 µg/mL (≈ 1050 µM) | Solubility in water [1]: 1 µg/mL (≈ 2.09 µM) | Dissolution multiple ([5]; Acetone): 275 | Solubility ([5]; Acetone): 440 ± 40 µg/mL (≈ 920 µM) | Dissolution multiple ([5]; Acetonitrile): 263 | Solubility ([5]; Acetonitrile): 420 ± 5 µg/mL (≈ 878 µM) | Dissolution multiple ([5]; DMF): 10819 | Solubility ([5]; DMF): 17310 ± 320 µg/mL (≈ 36200 µM) | Dissolution multiple ([5]; DMSO): 21131 | Solubility ([5]; DMSO): 33810 ± 700 µg/mL (≈ 70700 µM) | Dissolution multiple ([5]; Dichloromethane): 1981 | Solubility ([5]; Dichloromethane): 3170 ± 160 µg/mL (≈ 6630 µM) | Dissolution multiple ([5]; Ethanol): 800 | Solubility ([5]; Ethanol): 1280 ± 40 µg/mL (≈ 2680 µM) | Dissolution multiple ([5]; Ethyl acetate): 150 | Solubility ([5]; Ethyl acetate): 240 ± 20 µg/mL (≈ 502 µM) | Dissolution multiple ([5]; Hydrochloric acid (pH = 1.2)): 1.38 | Solubility ([5]; Hydrochloric acid (pH = 1.2)): 2.2 ± 0.26 µg/mL (≈ 4.6 µM) | Dissolution multiple ([5]; Isopropanol): 613 | Solubility ([5]; Isopropanol): 980 ± 60 µg/mL (≈ 2050 µM) | Dissolution multiple ([5]; Liposome: Cholesterol): 46 | Solubility ([5]; Liposome: Cholesterol): 60 ± 1 µg/mL (≈ 125 µM) | Dissolution multiple ([5]; Liposome: Lecithin): 40 | Solubility ([5]; Liposome: Lecithin): 40 ± 5 µg/mL (≈ 83.6 µM) | Dissolution multiple ([5]; Methanol): 881 | Solubility ([5]; Methanol): 1410 ± 130 µg/mL (≈ 2950 µM) | Dissolution multiple ([5]; PBS (pH = 7.4)): 0.5 | Solubility ([5]; PBS (pH = 7.4)): 0.8 ± 0.15 µg/mL (≈ 1.67 µM) | Dissolution multiple [5, 6]: 0.81 | Solubility [5, 6]: 1.3 ± 0.47 µg/mL (≈ 2.72 µM) | Dissolution multiple ([5]; Solid adjuvant F68): 8.1 | Solubility ([5]; Solid adjuvant F68): 13 ± 3 µg/mL | Dissolution multiple ([5]; Solid adjuvant F127): 61 | Solubility ([5]; Solid adjuvant F127): 98 ± 8 µg/mL | Dissolution multiple ([5]; Solid adjuvant HP-β-CD): 38 | Solubility ([5]; Solid adjuvant HP-β-CD): 60 ± 3 µg/mL | Dissolution multiple ([5]; Solid adjuvant PEG2000): 4.4 | Solubility ([5]; Solid adjuvant PEG2000): 7 ± 2 µg/mL | Dissolution multiple ([5]; Solid adjuvant PEG4000): 5 | Solubility ([5]; Solid adjuvant PEG4000): 8 ± 1 µg/mL | Dissolution multiple ([5]; Solid adjuvant PEG6000): 3.8 | Solubility ([5]; Solid adjuvant PEG6000): 6 ± 1 µg/mL | Dissolution multiple ([5]; Solid adjuvant SBE-β-CD): 44 | Solubility ([5]; Solid adjuvant SBE-β-CD): 71 ± 4 µg/mL | Dissolution multiple ([5]; Soluplus): 400 | Solubility ([5]; Soluplus): 515 ± 8 µg/mL (≈ 1080 µM) | Dissolution multiple ([5]; n-Octanol): 662 | Solubility ([5]; n-Octanol): 1060 ± 80 µg/mL (≈ 2220 µM) | Solubility ([5]; water): 1.6 ± 0.05 µg/mL (≈ 3.35 µM)

O=c1c2ccccc2[se]n1CCCCCCCn1[se]c2ccccc2c1=O [CPD5]
Solubility in 10% Soluplus [1]: 500 µg/mL (≈ 1020 µM) | Solubility in water [1]: 1 µg/mL (≈ 2.03 µM)

O=c1c2ccccc2[se]n1CCCn1[se]c2ccccc2c1=O [CPD1]
Solubility in 10% Soluplus [1]: 200 µg/mL (≈ 458 µM) | Solubility in water [1]: 4 µg/mL (≈ 9.17 µM)

O=c1c2cccc(F)c2[se]n1CCCCCCn1[se]c2c(F)cccc2c1=O [CPD9]
Solubility in 10% Soluplus [1]: 800 µg/mL (≈ 1560 µM) | Solubility in water [1]: 1 µg/mL (≈ 1.94 µM)

COc1ccc2[se]n(CCCCCCCn3[se]c4ccc(OCCCN(C)C)cc4c3=O)c(=O)c2c1 [CPD25]
Solubility in 10% Soluplus [1]: >1000 µg/mL | Solubility in water [1]: <10 µg/mL

COc1ccc2[se]n(CCCCCCCn3[se]c4ccc(OCCCn5nnnc5C)cc4c3=O)c(=O)c2c1 [CPD30]
Solubility in 10% Soluplus [1]: >1000 µg/mL | Solubility in water [1]: <10 µg/mL

O=c1c2cccc(F)c2[se]n1CCCCn1[se]c2c(F)cccc2c1=O [CPD7]
Solubility in 10% Soluplus [1]: 250 µg/mL (≈ 514 µM) | Solubility in water [1]: 2 µg/mL (≈ 4.11 µM)
